Here are results for two molecules from paper PMC2844520 (The AAPS journal, 2010).

The target in data set [1] is T1, Monoacylglycerol lipase (MAGL) (Mus musculus, UniProt O35678).
T1 sequence (O35678 1-303): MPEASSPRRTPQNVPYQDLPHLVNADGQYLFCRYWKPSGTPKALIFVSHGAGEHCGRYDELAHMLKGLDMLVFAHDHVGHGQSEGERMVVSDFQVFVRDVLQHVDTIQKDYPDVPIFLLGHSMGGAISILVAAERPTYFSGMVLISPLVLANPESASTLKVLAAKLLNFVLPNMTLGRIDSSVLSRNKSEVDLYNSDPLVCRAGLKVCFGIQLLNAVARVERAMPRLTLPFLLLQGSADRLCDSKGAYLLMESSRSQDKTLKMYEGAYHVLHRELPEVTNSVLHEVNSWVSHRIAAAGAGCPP
Kind of data set: inhibition of 3H-2-OG hydrolysis in MAGL-transfected COS-7 lysate. Format: biochemical.

Substrate in data set [2]: CCCCC/C=C\C/C=C\C/C=C\C/C=C\CCCC(=O)SCC(O)CO
The class given is biochemical, Mus musculus. The following applies: hydrolysis abolished by mutation of catalytic serine […] to alanine.

One may read the IC50 as the concentration at which inhibition is half-maximal. Read a high IC50 as lower potency. A word on the Km: it is the concentration of substrate that gives half-maximal velocity.

In data set [1], `CCCCC/C=C\C/C=C\C/C=C\C/C=C\CCCCN1C(=O)C=CC1=O` [NAM, N-arachidonyl maleimide] returned a 50% inhibitory concentration (IC50) of 45.7 nM.

B1: Monoacylglycerol lipase (MAGL) (Mus musculus) (protein)
chain: T1 sequence (O35678 1-303)
As to B1, the Km in data set [2] was found to be 67.9 µM.
